The nature of series [1]: Metabolic stability in human liver microsomes assessed as half-life measured upto 6 hrs in presence of NADPH generating system by HPLC-MS/MS analysis. It counts as ADME, Microsome. On the technique in general: Liver microsomes are vesicles of endoplasmic reticulum, rich in cytochrome P450 enzymes.
Series [2] can be described thus: Metabolic stability in rat liver microsomes assessed as intrinsic clearance per mg protein measured upto 6 hrs in presence of NADPH generating system by HPLC-MS/MS analysis. Type of series: ADME, Microsome. The conditions noted are these: read-out: CLH.
In series [3] the test system is HT-29. The series can be described thus: Cell cycle arrest in human HT-29 cells assessed as accumulation of cells in G2/M phase at 0.1 to 5 nM measured after 24 hrs by PI staining based flow cytometry method. It counts as functional. The conditions noted are these: dose 0.1-5 nM, DDE = dose-dependent effect. For orientation: In flow cytometry, cells or beads pass a laser one at a time.

Series [4] deals with HT-29. The series can be described thus: Induction of DNA damage in human HT-29 cells at 0.5 to 10 nM assessed as increase in gamma-H2AX level and measured after 24 hrs by Western blot analysis. Type of series: functional, cell-based. The conditions noted are these: dose 0.5-10 nM. A general note: In western blotting, separated proteins are transferred to a membrane and probed.

Series [5] can be described thus: Antitumor activity against mouse MCA-205 cells allografted in female C57BL/6 mouse assessed as increase in overall survival at 0.25 to 0.5 mg/kg, IT(Intratumoral). It counts as functional. The following applies: dose lower […], dose upper 0.5 mg/kg.
The subject of series [6] is A549. Put plainly: Antiproliferative activity against human A549 cells after 72 hrs by CellTiter Glo assay. The conditions noted are these: A549, 72 h. It counts as functional, cell-based.
The target in series [7] is T1, Tubulin (Homo sapiens) (UniProt P68371+Q9H4B7+P0DPH7+P68366+Q13509+Q71U36+P04350+Q3ZCM7+P07437+P68363+Q9BQE3+Q6PEY2+Q13885+Q9BVA1+Q9BUF5). The series can be described thus: Inhibition of tubulin polymerization in human MDA-MB-231 cells assessed as microtubule network polymerization at 250 nM after 30 mins by immunofluorescence analysis. Type of series: cell-based.

Series [8] concerns MIA PaCa-2. The series can be described thus: Antiproliferative activity against human MIA PaCa-2 cells after 72 hrs by CellTiter Glo assay. Type of series: functional, cell-based. The following applies: MIA PaCa-2, 72 h.
In series [9] the test system is NCI-N87. The series can be described thus: Antiproliferative activity against human NCI-N87 cells after 72 hrs by CellTiter Glo assay. It counts as functional, cell-based. The following applies: NCI-N87, 72 h.
Series [10] addresses T2, Histone deacetylase 8 (Homo sapiens, UniProt Q9BY41).
T2 sequence (Q9BY41 whole entry): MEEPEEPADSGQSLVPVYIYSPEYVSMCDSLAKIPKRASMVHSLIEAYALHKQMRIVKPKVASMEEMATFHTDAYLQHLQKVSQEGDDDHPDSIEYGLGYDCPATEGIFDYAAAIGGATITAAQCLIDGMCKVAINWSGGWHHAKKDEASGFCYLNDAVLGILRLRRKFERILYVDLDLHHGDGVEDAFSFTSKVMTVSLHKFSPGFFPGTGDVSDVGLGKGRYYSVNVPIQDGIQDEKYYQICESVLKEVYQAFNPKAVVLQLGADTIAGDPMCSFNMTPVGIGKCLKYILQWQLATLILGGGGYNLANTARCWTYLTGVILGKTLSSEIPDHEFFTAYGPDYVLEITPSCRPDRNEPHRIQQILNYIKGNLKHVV
Put plainly: Inhibition of HDAC8 (unknown origin) measured by fluorometry assay.

Series [11] can be described thus: Antiproliferative activity against mouse MCA-205 cells after 72 hrs by CellTiter Glo assay. It counts as functional, cell-based. The conditions noted are these: MCA-205, 72 h.
The test system of series [12] is MCA-205. Put plainly: Antitumor activity against mouse MCA-205 cells allografted in female C57BL/6 mouse assessed as complete tumor regression at 0.5 mg/kg, IT(Intratumoral). It counts as functional, organism-based.
For series [13], the system named is K562. Put plainly: Antiproliferative activity against imatinib-resistant human K562 cells over expressing MDR1 after 72 hrs by CellTiter Glo assay. It counts as functional, cell-based. The following applies: K562, 72 h.
The test system of series [14] is SK-OV-3. Put plainly: Antiproliferative activity against human SK-OV-3 cells after 72 hrs by CellTiter Glo assay. It counts as functional, cell-based. The conditions noted are these: SK-OV-3, 72 h.
A short description of series [15]: Metabolic stability in rat liver microsomes assessed as half-life measured upto 6 hrs in presence of NADPH generating system by HPLC-MS/MS analysis. Type of series: ADME, Microsome.
Series [16] deals with T3, Protein deacetylase HDAC6 (Homo sapiens, UniProt Q9UBN7).
T3 sequence (Q9UBN7 whole entry): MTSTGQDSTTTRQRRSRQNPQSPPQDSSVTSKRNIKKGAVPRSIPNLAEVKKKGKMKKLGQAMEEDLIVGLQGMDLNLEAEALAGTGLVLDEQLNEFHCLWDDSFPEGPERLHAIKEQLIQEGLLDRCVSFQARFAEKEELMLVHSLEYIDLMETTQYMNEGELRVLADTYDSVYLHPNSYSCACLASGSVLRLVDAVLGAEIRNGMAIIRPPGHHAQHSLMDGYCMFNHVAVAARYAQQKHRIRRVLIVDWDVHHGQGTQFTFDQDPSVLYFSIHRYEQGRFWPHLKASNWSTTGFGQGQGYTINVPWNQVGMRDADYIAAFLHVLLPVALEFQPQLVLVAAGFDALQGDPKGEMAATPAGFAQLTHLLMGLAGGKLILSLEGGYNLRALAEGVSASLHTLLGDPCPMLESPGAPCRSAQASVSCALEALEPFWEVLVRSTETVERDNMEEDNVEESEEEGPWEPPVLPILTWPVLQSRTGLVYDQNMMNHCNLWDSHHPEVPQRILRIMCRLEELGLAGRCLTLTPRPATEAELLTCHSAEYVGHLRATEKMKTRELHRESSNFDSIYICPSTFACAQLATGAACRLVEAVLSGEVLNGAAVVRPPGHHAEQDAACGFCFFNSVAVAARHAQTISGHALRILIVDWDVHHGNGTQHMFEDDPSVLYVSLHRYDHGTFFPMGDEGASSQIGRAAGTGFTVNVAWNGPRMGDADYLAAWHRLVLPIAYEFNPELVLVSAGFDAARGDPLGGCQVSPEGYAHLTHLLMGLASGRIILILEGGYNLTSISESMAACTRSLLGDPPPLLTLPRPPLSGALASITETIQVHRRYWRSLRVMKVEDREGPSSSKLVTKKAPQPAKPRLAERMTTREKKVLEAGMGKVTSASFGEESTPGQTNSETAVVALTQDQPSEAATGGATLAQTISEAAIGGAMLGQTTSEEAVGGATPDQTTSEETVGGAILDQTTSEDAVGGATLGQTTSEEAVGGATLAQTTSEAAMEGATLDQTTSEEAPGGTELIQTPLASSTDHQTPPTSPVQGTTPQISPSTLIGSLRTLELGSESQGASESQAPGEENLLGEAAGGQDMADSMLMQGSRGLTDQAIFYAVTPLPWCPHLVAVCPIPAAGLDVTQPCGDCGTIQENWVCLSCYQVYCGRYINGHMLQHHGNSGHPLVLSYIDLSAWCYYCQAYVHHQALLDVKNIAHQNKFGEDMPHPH
Put plainly: Inhibition of HDAC6 (unknown origin) measured by fluorometry assay.

Series [17] concerns HT-29. The series can be described thus: Induction of mitochondrial dysfunction in human HT-29 cells at 2 nM measured after 48 hrs by JC-1 staining based flow cytometry. It counts as functional, cell-based.
Series [18] deals with T1, Tubulin (Homo sapiens). The series can be described thus: Inhibition of tubulin polymerization in human HeLa cells assessed as microtubule network polymerization at 250 nM after 30 mins by immunofluorescence analysis. Type of series: cell-based.
Series [19] deals with T4, Histone deacetylase 8 (Homo sapiens) (UniProt Q9BY41).
T4 sequence (whole entry): T2 sequence (Q9BY41 whole entry)
Put plainly: Inhibition of HDAC8 in human HT-29 cells assessed as increase in SMC3 acetylation at 0.5 to 100 nM measured after 30 mins by western blot analysis. It counts as cell-based. The following applies: dose 0.5-100 nM.

Results on one molecule are retold here after ChEMBL document CHEMBL5113481, “Design, synthesis and biological evaluation of quinoline-2-carbonitrile-based hydroxamic acids as dual tubulin polymerization and histone deacetylases inhibitors” (Eur J Med Chem, 2022).

pIC50: −log10 of the molar value. Activity calls are given as the source filed them.

On to `COc1ccc(N(C)c2cc(C#N)nc3ccccc23)cc1/C=C/C(=O)NO`, for which the half-life (as a rule, the time needed for the level to fall by half in the phase considered) is 32 h in series [1] and 6.6 h in series [15]. Besides, the microsomal CLint in [2] was found to be 1.75 µL/min/mg. The Activity result in series [3] is “Dde”; in [5], 60%. In addition, the result in [4], in [12] and in series [17] was Active. Besides, the pIC50 (usually the IC50 on a negative log10 scale, so that one unit is a factor of ten) is 9.08 in series [6]; 9.03 in [8]; 10.00 in [9]; 6.82 in [10]; 8.56 in series [11]; 9.25 in series [13]. Moreover, the pIC50 was 9.22 in series [14] and 6.00 in series [16]. Moreover, the inhibition result in series [7], in series [18] and in series [19] was “Active” in each case.
